In brackets after ≈: the same amount, converted by molar mass.
Key:
Solubility of 5-HTP = format: physicochemical; conditions: water, read-out: aqueous solubility
Description: The aqueous solubility of 5-HTP is approximately 10 mg/ml. However, 5-HTP has been reported to be soluble to up to about 100 mg/ml in some solvents (Jacobsen et al, 2016a). In some embodiments, the concentration of 5-HTP in the infusion solutions (i.e., the infusate fluids) is between about 1 mg/ml and about 10 mg/ml. In some embodiments, the concentration is between about 0.1 mg/ml and about 1 mg/ml. In some embodiments, the concentration is between about 10 mg/ml and about 100 mg/ml.

plasma cortisol = test: Pharmacodynamics: acute increase in plasma cortisol; format: in vivo, human
Excerpt: Background: Compounds that acutely elevate brain 5-HTExt can activate the hypothalamic pituitary adrenal axis and induce the release of cortisol from the adrenals into the plasma (Attenburrow et al, 2001; Demisch et al, 1986; Guan et al, 2020; Kapitany et al, 1999; Lowe et al, 2006; Meltzer et al, 1983; Sargent et al, 1998). Generally large, acute increases in brain 5-HTExt are required to increase cortisol and the effect desensitizes rapidly with prolonged serotonin elevation (Mashchak et al, 1983).
Method: Total plasma cortisol levels (expressed in μg/dL) were quantified using standard immunoassay methodology. Total plasma cortisol levels were measured at multiple time points during the 24 hr infusion period of 5-HTP solution for IV infusion or placebo. Total plasma cortisol levels were measured at baseline (T=0) before the start of infusion. Blood samples were collected at T=0, and at pre-specified timepoints following initiation of infusion (2, 4, 6, 8, 10, 12, 14, 22, 24 hr). The pharmacodynamic population included subjects who received IV 5-HTP and completed the 24 h infusion or placebo and who had escitalopram levels above the lower limit of quantitation.
Statistics: Changes from baseline value were calculated for each time point using descriptive statistics (n, arithmetic mean, SD, CV). A comparison between active treatment and placebo was made for each time point and cohort using ANOVA with Dunnett's post-hoc correction of the p-value to account for multiple testing. Significance was set at p<0.05. Statistical analysis was executed using SAS software Version 9.4,

[1] = some solvents (Jacobsen et al, 2016a); cited from earlier work

solubility (Solubility of 5-HTP): ~10000 µg/mL (≈ 45.4 mM)
SMILES: N[C@@H](Cc1c[nH]c2ccc(O)cc12)C(=O)O [5-HTP, 5-hydroxytryptophan]
plasma cortisol levels relative to placebo (plasma cortisol; constant flow rate 1 mg/kg/24 hr, 2 hr after start of infusion, p<0.01): significantly higher
plasma cortisol levels relative to placebo (plasma cortisol; constant flow rate 3 mg/kg/24 hr, 2 hr after start of infusion, p<0.005): significantly higher
plasma cortisol levels relative to placebo (plasma cortisol; constant flow rate 3 mg/kg/24 hr, throughout the 24 hr infusion, except at the 24 hr time point): remained significantly higher
increase of plasma cortisol levels relative to placebo (plasma cortisol; ramp flow rate 1 mg/kg/24 hr, 14 hr, trend, p=0.0751): not statistically significant
plasma cortisol levels relative to placebo (plasma cortisol; ramp flow rate 2 mg/kg/24 hr, 14 hr after start of infusion, p<0.05): significantly higher
plasma cortisol levels relative to placebo (plasma cortisol; ramp flow rate 3 mg/kg/24 hr, 14 hr after start of infusion, p<0.0001): significantly higher
soluble in some solvents [1]: up to 100 mg/ml
